Source: article PMC10292217, “Gene-nutrient interactions that impact magnesium homeostasis increase risk for neural tube defects in mice exposed to dolutegravir” (Frontiers in Cell and Developmental Biology, 2023)
Where two headings read alike, the source gives them in different places.

Experiments:
[1] = system: human embryonic stem cell (hESC) lines; design: method as in Smith et al., 2022; details: 2 different hESC lines; ref Smith et al., 2022; cited from earlier work
[2] = system: Madin-Darby canine kidney II cells; design: method as in Zamek-Gliszczynski et al., 2019; details: ref Zamek-Gliszczynski et al., 2019; cited from earlier work
hESC morphogenesis model = system: hESC morphogenesis model; design: method as in Kirkwood-Johnson et al., 2021; details: ref Kirkwood-Johnson et al., 2021; cited from earlier work
zebrafish embryos = details: exposure initiated at 3 h post-fertilization; ref Cabrera et al., 2019; cited from earlier work
C3H/HeJ mice = system: C3H/HeJ mice; design: method as in Bade et al., 2021; details: 50 mg/kg/d DTG oral gavage from GD 0.5; 1 NTD affected pup in 17 litters; ref Bade et al., 2021; cited from earlier work
FOLR1 = system: FOLR1; design: method as in Cabrera et al., 2019; details: human placental trophoblast cells; ref Cabrera et al., 2019; cited from earlier work
Whole rat embryos = system: Whole rat embryos; design: method as in Posobiec et al., 2021; details: exposure GD 9-11; concentrations approx. 2 times plasma concentration at MRHD; ref Posobiec et al., 2021; cited from earlier work
[3] = ref Zash et al., cited from earlier work
[4] = Plasma DTG pharmacokinetics (LC-MS/MS, NCA) in LM/Bc mice; format: in vivo, mouse; details: for Tmax / half-life / Cmax / AUC(0-t): female, mouse, plasma; for half-life: read-out: t½ (converted); for Cmax / AUC(0-t): high Mg2+ soy diet; for AUC(0-t): read-out: AUC 0-24
Protocol: Baseline blood samples were collected via cheek bleed (submandibular vein) from all animals prior to timed matings, and again on GD 9.5. A Goldenrod sterile lancet (MEDIpoint, Inc., Mineola, NY) was used to lance the submandibular vein, and 3-4 drops (∼100 µL) of blood was collected into a Microvette CB 300 Lithium Heparin plasma separator tube (SARSTEDT AG and Co., Germany) and then centrifuged at 2000 g for 8 min. Plasma samples were frozen at −80 °C for LCMS analysis of DTG or ICP-MS determination of cations. DTG detection and quantification was performed at Creighton University using a previously published method ([Bennetto-Hood et al., 2014]) with minor modifications. Briefly, a seven-point calibration curve ranging from 0.1 to 100 μg/mL was challenged with quality control vials at known concentrations of 5, 20, and 80 μg/mL. All controls and calibrators with known drug concentrations were added to DTG-free mouse plasma. To initiate protein precipitation, 120 µL of acetonitrile containing 10 ng/mL of d5- DTG internal standard (Cayman Chemical, Ann Arbor, MI) was added to 20 µL mouse plasma (calibrators, controls, unknown samples), and mixed for 2 min on an orbital shaker (1500 rpm), followed by centrifugation at 2,655 g for 5 min. […] LC-MSMS separation was achieved using Agilent 1200 liquid chromatography devices and an AB Sciex 3200 Q-Trap mass spectrometer. The mobile phase consisted of an isocratic gradient of 0.1% formic acid in water:0.1% formic acid in acetonitrile (60:40) with a flow rate of 0.475 mL/min across an XBridge C18 column (Waters, Milford, MA, United States). […] Strains and treatments were compared by 2-way ANOVA followed by post hoc analyses. Pairwise comparisons of the proportion of affected embryos in each litter between strains and treatments were evaluated by the Fisher least significant difference method. Index value pairwise comparisons were evaluated using the Kruskal–Wallis nonparametric test in Sigma XL (v9.0). Comparisons of cation levels in urine and plasma between strains and between diets as well as the effect of DTG on the incidence of NTDs in LM/Bc dams was performed by one-way ANOVA followed by Dunnett’s multiple comparisons test using GraphPad Prism version 9.5.0 for Windows. The level of significance p < 0.05 was used for all analyses. DTG pharmacokinetics were evaluated by noncompartmental analysis (NCA) using PKsolver ([Zhang et al., 2010]).

[5] = 750 mg/kg/day, pregnant LM/Bc mice, 10 daily oral doses DTG750
[6] = 750 mg/kg/day, pregnant LM/Bc mice, 10 daily oral doses DTG750 GD 0.5-GD 9.5
[7] = 750 mg/kg, non-pregnant LM/Bc mice, single oral dose DTG750
[8] = non-pregnant LM/Bc mice, single oral dose DTG 750 mg/kg
[9] = non-pregnant mouse single dose DTG750 vs human 50 mg single dose
[10] = non-pregnant mouse single dose DTG750 vs human 100 mg single dose
[11] = non-pregnant mouse single dose DTG750 vs human 100 mg × 7d
[12] = pregnant mouse 10 daily doses DTG750 vs pregnant women 2nd trimester 50 mg/d

C[C@@H]1CCO[C@H]2Cn3cc(C(=O)NCc4ccc(F)cc4F)c(=O)c(O)c3C(=O)N12 [DTG, Dolutegravir]
effect on hESC [1]: cytotoxicity and a dose-dependent loss of pluripotency
effect on inhibition of folate transport [2]: did not find a significant DTG or INSTI class effect
effect on 3D morphogenesis (hESC morphogenesis model): altered growth and expression of genes involved in body patterning
mortality (zebrafish embryos): Significant mortality
NTD-affected litters (C3H/HeJ mice): 5.8%
FOLR1-mediated uptake of folic acid (FOLR1): partially inhibited
developmental toxicity or NTDs (Whole rat embryos): no developmental toxicity or NTDs were observed
NTD prevalence ([3]; 4/426 infants exposed to DTG from conception, 2018): .94%
prevalence of DTG-NTDs ([3]; follow-up study, 5/1683 deliveries, 2019): .30%
increase in the prevalence of NTDs ([3]; women who began DTG prior to conception, 2018): 9 fold
Tmax [4, 5]: 2 h
half-life [4, 5]: 4.4 h
Cmax [4, 6]: 128 µg/mL
AUC(0-t) [4, 6]: 847 µg·h/mL
Tmax [4, 7]: 2 h
half-life [4, 7]: 6.3 h
Cmax [4, 8]: 133 µg/mL
AUC(0-t) [4, 8]: 1300 µg·h/mL
AUC 0-24, mouse multiplication factor vs human [4, 9]: 18.4 x
Cmax, mouse multiplication factor vs human [4, 9]: 28.9 x
AUC 0-24, mouse multiplication factor vs human [4, 10]: 9.9 x
Cmax, mouse multiplication factor vs human [4, 10]: 16.4 x
AUC 0-24, mouse multiplication factor vs human [4, 11]: 14.1 x
Cmax, mouse multiplication factor vs human [4, 11]: 19.8 x
AUC 0-24, mouse multiplication factor vs human [4, 12]: 17.8 x
Cmax, mouse multiplication factor vs human [4, 12]: 35.3 x
